Tests used:
Format in all cases: biochemical
[1] = Ferric reducing antioxidant power (FRAP) test; conditions: 505 nm
Description: (§1) The in vitro antioxidant ability of the compounds synthesized in this work was evaluated using three different assays, including (i) the ABTS radical cation reduction-decolorization test, which uses the technique of Khan et al. consisting of the reduction of the cation radical by an antioxidant through the discoloration measured by absorption at the wavelength of 734 nm; (ii) interaction with the stable free radical DPPH, based on Bassene’s method, in which the scavenging of DPPH radicals is carried out by a colorimetric method consisting of the reduction of the DPPH radical, determined by its absorption at a wavelength of 517 nm; and (iii) the FRAP test according to the protocol of Path Canada, based on the ability of a substance to reduce Fe^3+ ions to Fe^2+ ions, which, in the presence of 1,10-phenanthroline, form a red-orange complex whose optical density can be measured at 505 nm.
The Fe^3+ reduction test followed Path Canada’s protocol with some modifications, assessing the reduction of Fe^3+ ions to Fe^2+ ions, which form a red-orange complex with 1,10-phenanthroline, measurable at 505 nm. The colour intensity correlates with the amount of Fe^3+ reduced. Four solutions were prepared: 1.2 mg ml^−1 of Fe^3+ solution (1.2 mg FeCl3 in 1 ml distilled H2O), 0.2% ortho-phenanthroline solution (200 mg powder in 100 ml ethanol), 2 mg ml^−1 of gallic acid solution (2 mg gallic acid in 1 ml distilled H2O) as a positive control, stock and dilute solutions of the synthesized compounds (see §3.2.5.1). In a 96-well microplate, 180 µl distilled H2O was added to the first column and 100 µl to others for dilution. Each compound solution (20 µl at 10 mg ml^−1) was mixed with 25 µl Fe^3+ solution and incubated for 15 min in the dark at room temperature. Afterwards, 50 µl ortho-phenanthroline solution was added, followed by another 15 min incubation. Optical density was measured at 505 nm using a TECAN M200 plate reader. The positive control was treated similarly to the DPPH and ABTS assays.
(§2) The percentages of scavenging or 50% reduction were calculated using gallic acid as a standard for 100% reduction. The concentration of radical scavengers needed to neutralize 50% of free radicals, referred to as SC50, was determined using GraphPad Prism 8.0.1 software (244).

[2] = DPPH radical scavenging test; conditions: 517 nm, 30 min
Description: as §1
The DPPH radical trapping protocol is based on Bassene’s method, modified for colorimetric analysis. DPPH is a stable purple organic nitrogen radical that absorbs light at 517 nm. When an anti-free radical agent is present, DPPH is reduced to a stable yellow compound, indicated by a loss of colour between 470 and 517 nm. A 0.02% DPPH solution was made with ethanol and stored in a sealed jar in the dark. Stock solutions of the synthesized compounds were prepared by dissolving 100 mg of each in 1 ml of DMSO, and the final concentration of DMSO concentration in the first well was 0.5%. These stocks were then diluted to achieve concentrations (500, 250, 125, 62.5, 31.25, 15.625 and 7.8125)/Mi in mM (Mi: molecular weight of each synthetic compound). Each dilution (25 µl) was put to the wells and 75 µl of the DPPH solution (0.02%) were added. Optical densities were measured at 517 nm after 30 min of incubation in the dark. The negative control used DPPH alone, while the positive control used gallic acid treated with solutions of the synthesized compounds at final concentrations (50, 25, 12.5, 6.25, 3.125, 1.5625 and 0.78125)/Mi in mM. Synthesized compounds were also tested alone to assess fluorescence.
Assays were performed in duplicate, and results were averaged. Percentage inhibition (PI), reflecting the antioxidant activity related to the DPPH˙ radical scavenging effect, was calculated using the following formula:
(PI)=Acontrol−Atest/Acontrol×100,
where Acontrol = absorbance of the control sample and Atest = absorbance of the tested sample.
as §2

[3] = ABTS radical cation scavenging (decolorization) test; conditions: 734 nm, 30 min
Description: as §1
The modified technique by Khan et al. was used to scavenge ABTS^+• cation radicals through a discoloration test. In this test, potassium permanganate (KMnO4) or potassium persulphate (K2S2O8) reacts with ABTS to generate a blue-green ABTS^+• radical. Antioxidants reduce this radical, leading to a measurable colour change at 734 nm, proportional to the antioxidant concentration. The antioxidant capacity is assessed by comparing the intensity reduction of ABTS colour with that of a reference antioxidant, gallic acid. Stock and dilute solutions of synthetic compounds were prepared as detailed in §3.2.5.1. Diluted concentrations were (50, 25, 12.5, 6.25, 3.125, 1.5625 and 0.78125)/Mi in mM. The ABTS solution was obtained by mixing ABTS with K2S2O8, producing an intense blue colour. The ABTS^+• radical was generated by combining equal volumes of a 4.9 mM K2S2O8 solution and a 7 mM ABTS stock solution, stored in the dark at room temperature for 15 h before use. The 7 mM ABTS stock was then diluted 20 times with distilled water. A total of 25 µl of each dilution was added to wells along with 75 µl of 0.175 mM ABTS+ solution. After 30 min of incubation in the dark at room temperature, optical densities were measured at 734 nm. Negative controls contained the ABTS reagent without synthesized compounds, while positive controls used gallic acid at the same final concentrations as the compounds. Compounds were also tested alone to assess fluorescence. The reduction of ABTS results in a blue discoloration, with lower absorbance indicating higher antioxidant activity.
as §2

[4] = first replicate, read-out: FRAP SC50(1)
[5] = mean of duplicate, read-out: FRAP mean SC50
[6] = second replicate, read-out: FRAP SC50(2)
[7] = first replicate, read-out: DPPH SC50(1)
[8] = mean of duplicate, read-out: DPPH mean SC50
[9] = second replicate, read-out: DPPH SC50(2)
[10] = first replicate, read-out: ABTS SC50(1)
[11] = second replicate, read-out: ABTS SC50(2)

| EC50 [1, 4] [µM] | EC50 [1, 5] [µM] | EC50 [1, 6] [µM] | EC50 [2, 7] [µM] | EC50 [2, 8] [µM] | EC50 [2, 9] [µM] | EC50 [3, 10] [µM] | EC50 [3, 11] [µM] | EC50 ([3]; mean of duplicate, read-out: ABTS mean SC50) [µM] | SMILES |
| --- | --- | --- | --- | --- | --- | --- | --- | --- | --- |
| 59 | 61 | 62 | 15 | 15 | 15 | 38 | 38 | – | O=C(O)c1cc(O)c(O)c(O)c1 [gallic acid, reference compound] |
| 6160 | 6180 | 6200 | 6440 | 6480 | 6520 | 2150 | 2110 | 2130 | CCCCCCCC/C=C\CCCCCCCC(=O)OCCOC(=O)C(C)c1ccc(CC(C)C)cc1 (centres unmarked) [Compound 5b, 2-((2-(4-isobutylphenyl)propanoyl)oxy)ethyl oleate] |

From PMC12074795, “Synthesis and biological evaluation of esterified anti-inflammatory drugs with ethylene glycol linkers: cytotoxicity, anti-inflammatory and antioxidant properties” (Royal Society Open Science, 2025)
